The values that follow come from PubChem BioAssay (NCI).

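Test compounds were applied to cells in 96-well plates for 48 hours at 5 doses. Here, GI50 denotes the concentration required for 50% inhibition of growth. TGI: concentration producing complete growth inhibition.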

The subject of one assay is HS 578T breast. Put plainly: growth of human tumour cells (NCI), 48 h.
As for `Cc1cccc2c1CC1(C2)Cc2c(C)cccc2C1=O` (stereo not drawn), the TGI is over 100 µM.
For `O=C1NCC2(CCN(CCCC3(c4ccc(F)cc4)OCCO3)CC2)N1c1ccccc1`, the TGI was over 100 µM.

Another assay relates to HT29 colon. The experiment in a line: growth of human tumour cells (NCI), 48 h.
In turn, `O=c1cc(-c2ccccc2)oc2cc(OCCCOc3ccc4c(=O)cc(-c5ccccc5)oc4c3)ccc12` showed a TGI of over 100 µM.
Same read-out and setting: to `Clc1ccc(C(c2ccc(Cl)cc2)c2ccccn2)cc1` belongs 30.8 µM.
Same read-out and setting: to `CC(C)=Cc1cc(C(=O)Nc2ccc(Cl)c(Cl)c2)nc(N)n1` belongs over 100 µM.
Turning to `CCN1CCN(c2nc(C)cc(N(CCNc3ccnc4cc(Cl)ccc34)Cc3ccc4c(c3)OCO4)n2)CC1`, the GI50 is 1.83 µM and the TGI was 4.83 µM.
On to `Cn1cnc([N+](=O)[O-])c1Sc1nc2ccccc2[nH]1`, for which the TGI is over 100 µM.
`CCCCCCN(CCCCCC)C(=O)Cc1c2n(c3ccccc13)Cc1ccccc1-2` returned a TGI of over 100 µM.
On the same count and under the same terms, the figure for `COc1cc(NCc2ccc3oc(=O)c(-c4ccccc4)nc3c2)cc(OC)c1OC` is over 10 µM; for `CC(=O)OC1COC(n2ccc3cc(Br)c([N+](=O)[O-])cc32)C(OC(C)=O)C1OC(C)=O` (stereo not drawn) it is over 100 µM; for `CCOC(=O)NC(=O)c1cn(CCCO)c(=O)[nH]c1=O` it is over 100 µM.
Take `CN(C)c1nc(=Nc2ccc(N=c3nc(N(C)C)ss3)cc2)ss1`: the TGI was found to be 54.5 µM.
Regarding `CCCC(=O)OC1CC(n2cc(F)c(=O)[nH]c2=O)OC1COP(=O)(OCC(Cl)(Cl)Cl)OCC(Cl)(Cl)Cl` (stereo not drawn), the TGI is 41.3 µM.
The same measure, in the same setting: to `O=[N+]([O-])C(/C=C(\Cl)n1nnc2ccccc21)=C(/Cl)n1nnc2ccccc21` belongs over 100 µM.
Same read-out and setting: to `CCc1cc(Cc2cc(CC)c(NC(=O)C(=O)Cc3ccccn3)c(CC)c2Cl)c(Cl)c(CC)c1NC(=O)C(=O)Cc1ccccn1` belongs over 100 µM; to `C[Si](C)(C)C1(Sc2ccccc2)SCCCS1`, over 100 µM.
Still for that read-out and setting: to `c1ccc(COc2cccc3ccc[n+](Cc4ccccc4)c23)cc1` belongs over 100 µM; to `CC1(C)C2CCC(=O)C1CC2` (stereo not drawn), over 100 µM.
`O=S1(=O)OCCOS(=O)(=O)C1Br` had a TGI of over 100 µM.
The same measure, in the same setting: the figure for `CCOC(=O)C(=C=C=C(c1ccccc1)c1ccccc1)C(=O)OCC` is 41.7 µM; for `CC1=CC(O)(c2ccc(-c3ccccc3Cl)cc2)OC1=O` (stereo not drawn) it is over 100 µM; for `C/C(=N\NC(=S)NC(CCC(=O)O)C(=O)O)c1ccccn1` (stereo not drawn) it is over 100 µM.
Compound `C#CC1(O)CCC2C3CCc4cc(Oc5nc(F)nc(-c6c7ccccc7c7sc8ccccc8n67)n5)ccc4C3CC[C@@]21C` (stereo partly drawn) came in with a TGI of over 100 µM.
`Cc1cccc2c1CC1(C2)Cc2c(C)cccc2C1=O` (stereo not drawn) returned a TGI of 97.2 µM.
For `Cc1c2c(nn1-c1ccc(S(=O)(=O)/N=C3\SCCC(=O)N3c3ccccc3)cc1)-c1ccccc1CC2`, the GI50 was over 100 µM and the TGI was over 100 µM.
In turn, `Cc1ccc(NC(=O)c2cc3cc(N=Nc4ccccc4C(=O)O)ccc3oc2=O)cc1` had a TGI of over 100 µM.
On the same count and under the same terms, to `COc1ccc(S(=O)(=O)NNS(C)(=O)=O)cc1` belongs over 100 µM; to `O=C(/C=C\c1ccc(Cl)c(Cl)c1)c1ccc(Cl)cc1Cl`, 34.2 µM; to `O=C1NCC2(CCN(CCCC3(c4ccc(F)cc4)OCCO3)CC2)N1c1ccccc1`, over 100 µM.
`CCN(CC)/C(SCc1ccccc1)=C(\C(Cl)=C(Cl)Cl)[N+](=O)[O-]` returned a TGI of 81.7 µM.
On the same count and under the same terms, to `CC(=O)/C(=C\c1cccc([N+](=O)[O-])c1)C(=O)Nc1ccccc1C` belongs over 100 µM; to `CCN1c2ccccc2C(C(SC)S(=O)(=O)c2ccc(C)cc2)c2c1[nH]c(=O)n(C)c2=O` (stereo not drawn), over 100 µM; to `COC(OC)C(C)CC(=O)N(C)C` (stereo not drawn), over 100 µM.

The subject of another assay is NCI-H226 lung. Put plainly: growth of human tumour cells (NCI), 48 h.
Compound `O=c1cc(-c2ccccc2)oc2cc(OCCCOc3ccc4c(=O)cc(-c5ccccc5)oc4c3)ccc12` gave a TGI of over 100 µM.
`Clc1ccc(C(c2ccc(Cl)cc2)c2ccccn2)cc1` came in with a TGI of 31.9 µM.
Same read-out and setting: to `CC(C)=Cc1cc(C(=O)Nc2ccc(Cl)c(Cl)c2)nc(N)n1` belongs over 100 µM.
With `CCN1CCN(c2nc(C)cc(N(CCNc3ccnc4cc(Cl)ccc34)Cc3ccc4c(c3)OCO4)n2)CC1`, the GI50 is 15 µM and the TGI was 33.6 µM.
On to `Cn1cnc([N+](=O)[O-])c1Sc1nc2ccccc2[nH]1`, for which the TGI worked out at 78.1 µM.
Still for that read-out and setting: the figure for `CCCCCCN(CCCCCC)C(=O)Cc1c2n(c3ccccc13)Cc1ccccc1-2` is over 100 µM; for `COc1cc(NCc2ccc3oc(=O)c(-c4ccccc4)nc3c2)cc(OC)c1OC` it is over 10 µM.
Still for that read-out and setting: to `CC(=O)OC1COC(n2ccc3cc(Br)c([N+](=O)[O-])cc32)C(OC(C)=O)C1OC(C)=O` (stereo not drawn) belongs 43.9 µM.
Same read-out and setting: the figure for `CCOC(=O)NC(=O)c1cn(CCCO)c(=O)[nH]c1=O` is over 100 µM; for `CN(C)c1nc(=Nc2ccc(N=c3nc(N(C)C)ss3)cc2)ss1` it is over 100 µM; for `CCCC(=O)OC1CC(n2cc(F)c(=O)[nH]c2=O)OC1COP(=O)(OCC(Cl)(Cl)Cl)OCC(Cl)(Cl)Cl` (stereo not drawn) it is over 100 µM.
As for `O=[N+]([O-])C(/C=C(\Cl)n1nnc2ccccc21)=C(/Cl)n1nnc2ccccc21`, the TGI was over 100 µM.
In turn, `CCc1cc(Cc2cc(CC)c(NC(=O)C(=O)Cc3ccccn3)c(CC)c2Cl)c(Cl)c(CC)c1NC(=O)C(=O)Cc1ccccn1` showed a TGI of over 100 µM.
In turn, `c1ccc(COc2cccc3ccc[n+](Cc4ccccc4)c23)cc1` gave a TGI of 25.5 µM.
Same read-out and setting: to `CC1(C)C2CCC(=O)C1CC2` (stereo not drawn) belongs over 100 µM; to `O=S1(=O)OCCOS(=O)(=O)C1Br`, over 100 µM.
The same measure, in the same setting: to `CCOC(=O)C(=C=C=C(c1ccccc1)c1ccccc1)C(=O)OCC` belongs 37.6 µM; to `C/C(=N\NC(=S)NC(CCC(=O)O)C(=O)O)c1ccccn1` (stereo not drawn), over 100 µM.
Same read-out and setting: to `C#CC1(O)CCC2C3CCc4cc(Oc5nc(F)nc(-c6c7ccccc7c7sc8ccccc8n67)n5)ccc4C3CC[C@@]21C` (stereo partly drawn) belongs over 100 µM; to `Cc1cccc2c1CC1(C2)Cc2c(C)cccc2C1=O` (stereo not drawn), 61 µM.
On to `Cc1c2c(nn1-c1ccc(S(=O)(=O)/N=C3\SCCC(=O)N3c3ccccc3)cc1)-c1ccccc1CC2`, for which the GI50 was 84.4 µM and the TGI is over 100 µM.
The compound `Cc1ccc(NC(=O)c2cc3cc(N=Nc4ccccc4C(=O)O)ccc3oc2=O)cc1` returned a TGI of over 100 µM.
Same read-out and setting: the figure for `COc1ccc(S(=O)(=O)NNS(C)(=O)=O)cc1` is over 100 µM.
Regarding `O=C(/C=C\c1ccc(Cl)c(Cl)c1)c1ccc(Cl)cc1Cl`, the GI50 was 6.39 µM and the TGI came out at 21.2 µM.
`O=C1NCC2(CCN(CCCC3(c4ccc(F)cc4)OCCO3)CC2)N1c1ccccc1` returned a TGI of over 100 µM.
